Each structure is given as a SMILES string.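 Protocol summary: plate cells (96-well), add compound at 5 concentrations, incubate 48 h, interpolate endpoints linearly. At the TGI there is no net growth.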

For seven compounds, TGI results are on record in PubChem BioAssay (NCI).

Holding throughout (experiment): growth of human tumour cells (NCI), 48 h
Assay [1] deals with MDA-MB-231 breast.
Assay [2] concerns UO-31 renal.
Assay [3] deals with OVCAR-3 ovarian.
In assay [4] the test system is K-562 leukemia.
Assay [5] deals with UACC-62 melanoma.
Assay [6] deals with HL-60(TB) leukemia.
Assay [7] deals with MDA-N.
In assay [8] the test system is UACC-257 melanoma.
Assay [9] has as its system HS 578T breast.
The subject of assay [10] is CCRF-CEM leukemia.
The test system of assay [11] is SK-MEL-28 melanoma.
Assay [12] relates to OVCAR-4 ovarian.
The test system of assay [13] is NCI/ADR-RES ovarian.
Assay [14] deals with MOLT-4 leukemia.
Assay [15] deals with SR leukemia.
The subject of assay [16] is OVCAR-5 ovarian.
Assay [17] concerns PC-3 prostate.
Assay [18] deals with SW-620 colon.
In assay [19] the test system is KM12 colon.
In assay [20] the test system is HCT-15 colon.

Regarding `CCOC(=O)C1(Cc2ccccc2)C=CN(C(=O)c2ccccc2)C=C1`, the TGI in [1] is greater than 100 µM; in assay [2], greater than 100 µM; in [3], greater than 100 µM; in assay [4] it was greater than 100 µM; in assay [5] it was 72.9 µM; in assay [6], 45.7 µM. In addition, the TGI in [7] is 65.2 µM; in assay [8] it was 51.1 µM; in assay [9], greater than 100 µM; in assay [10], 61.5 µM; in [11] it was greater than 100 µM; in assay [12], greater than 100 µM. For the same compound, the TGI in assay [13] is greater than 100 µM; in assay [14] it was 73.6 µM; in assay [15] it was 67.5 µM; in [16] it was greater than 100 µM; in [17], greater than 100 µM; in assay [18], greater than 100 µM. The TGI in [19] and in assay [20] was greater than 100 µM in each case.
Regarding `Cc1nc(-c2cc3c(ccc4ccccc43)oc2=O)cs1`, the TGI in assay [1], in assay [2], in [4], in assay [5], in assay [6] and in assay [7] was greater than 100 µM in each case. Moreover, the TGI in assay [8] is greater than 100 µM; in assay [9], 99.3 µM; in assay [10], greater than 100 µM; in assay [11], greater than 100 µM; in [12] it was greater than 100 µM; in assay [13], greater than 100 µM. Besides, the TGI in [14], in assay [15], in [16], in assay [17], in [18] and in assay [19] was greater than 100 µM each time. In assay [20], this compound gave a TGI greater than 100 µM.
With `Cc1cc2cc3c(cc2c(-c2ccc([N+](=O)[O-])cc2)n1)OCO3`, the TGI was 84.4 µM in [1]; greater than 100 µM in assay [2]; greater than 100 µM in assay [3]; greater than 100 µM in assay [4]; 67.2 µM in assay [5]; greater than 100 µM in assay [6]. The TGI is greater than 100 µM in [7]; greater than 100 µM in [8]; greater than 100 µM in assay [9]; greater than 100 µM in assay [10]; greater than 100 µM in [11]; 56.8 µM in assay [12]. For the same compound, the TGI in assay [13], in assay [14], in [15], in [16], in assay [17] and in assay [18] was greater than 100 µM each time. The TGI in [19] and in assay [20] was greater than 100 µM throughout.
On to `CCC/C=C/c1cc2c(cc1O)CC[C@@H]1[C@@H]2CC[C@]2(C)[C@@H](O)CC[C@@H]12`, for which the TGI in [1] is 33.7 µM; in [2], 31 µM; in assay [3], 47 µM; in assay [4], 45.5 µM; in assay [5], 29 µM; in assay [6], 27.3 µM. Besides, the TGI came to 28.3 µM in assay [7]; 30.8 µM in [8]; 57.6 µM in [9]; 32.8 µM in [10]; 36.5 µM in [11]; 44.9 µM in assay [12]. The TGI is 44.1 µM in assay [13]; 42.5 µM in [14]; 45.7 µM in [15]; 35.1 µM in [16]; 31 µM in assay [17]; 37.4 µM in [18]. Also, the figures for the TGI in assay [19] and in assay [20] were 32.6 µM and 39.9 µM, respectively.
As to `OC1(c2ccc(Cl)cc2)C(N2CCCC2)c2ccccc2C2=NCCN21` (centres undefined), the TGI in assay [1] is greater than 100 µM; in assay [2], greater than 100 µM; in [3], greater than 100 µM; in [4] it was 47.5 µM; in assay [5], 41.3 µM; in assay [6], 50.7 µM. The TGI was 51.4 µM in [7]; 40.6 µM in assay [8]; 89.9 µM in assay [9]; greater than 100 µM in [10]; 31.9 µM in assay [11]; 87.9 µM in [12]. Moreover, the TGI was 59.9 µM in assay [13]; 93.8 µM in assay [14]; 41.1 µM in assay [15]; greater than 100 µM in assay [16]; greater than 100 µM in assay [17]; greater than 100 µM in assay [18]. Besides, the figures for the TGI in assay [19] and in assay [20] were 60 µM and greater than 100 µM, respectively.
In the case of `COC(=O)CC(c1cn(S(=O)(=O)c2ccc(C)cc2)c2ccccc12)C1C[C@@H](C(=O)OC)N(C(=O)OC(C)(C)C)C1=O` (some centres undefined), the TGI in [1], in [2], in assay [3], in [4], in assay [5] and in assay [6] was greater than 100 µM in each case. Besides, the TGI in assay [7] was greater than 100 µM; in assay [8], greater than 100 µM; in assay [9], greater than 100 µM; in [10] it was 76.9 µM; in assay [11], greater than 100 µM; in assay [12] it was greater than 100 µM. For the same compound, the TGI in assay [13] is greater than 100 µM; in [14], 21 µM; in assay [15] it was 10.4 µM; in assay [16], greater than 100 µM; in assay [17], greater than 100 µM; in assay [18], greater than 100 µM. Also, the TGI in [19] and in assay [20] was greater than 100 µM each time.
For the compound `c1nc(N2CC2)c2cnn(C3CCCCO3)c2n1` (centres undefined), the TGI in assay [1], in assay [2], in assay [3], in assay [4], in [5] and in assay [6] was greater than 100 µM throughout. In addition, the TGI in assay [7], in assay [8], in assay [9], in assay [10], in assay [11] and in assay [12] was greater than 100 µM each time. For the same compound, the TGI in [13], in assay [14], in assay [15], in assay [16], in assay [17] and in assay [18] was greater than 100 µM each time. Moreover, the TGI in assay [19] and in assay [20] was greater than 100 µM throughout.
